From patent publication US20130287807A1, “COMPOUNDS FOR TREATING SYMPTOMS ASSOCIATED WITH PARKINSON'S DISEASE” (priority 2008, published 2013)

Experiments:
[1] = test system: monoclonal antibody MV-001; assay: In vitro binding assay (ELISA), BSA-coupled peptides, parental antibody MV-001; design: species or system C57/B16 mice; settings: Table 1C; peptide-BSA on plate, compared to original epitope
Procedure: (§1) Peptides derived from Phage Display as well as variants thereof were coupled to BSA and bound to ELISA plates (1 μM; as indicated in the respective figures) and subsequently incubated with the monoclonal antibody that was used for the screening procedure to analyse binding capacity of identified peptides.
Legend to Table 1C: the binding capacity is coded by the following binding code: 1:X describes the dilution factor of the parental AB

[2] = test system: monoclonal antibody MV-001; assay: In vitro inhibition assay (ELISA), MV-001 binding to original epitope; design: species or system C57/B16 mice; settings: Table 2C; OD at 10 ug peptide compared to original peptide
Procedure: (§2) Different amounts of peptides (concentrations ranging from 10 μg to 0.08 μg; serial dilutions; for MV-002: concentrations ranging from 5 μg to 0.03 μg; serial dilutions), derived from Phage Display were incubated with the monoclonal antibody that was used for the screening procedure. Peptides diminishing subsequent binding of the antibody to the original epitope coated on ELISA plates were considered as inhibiting in this assay.
(§3) Legend to Table 2C: the inhibition capacity is coded by the following code: Weak inhibition means more peptide is required to lower AB binding than with the original epitope; strong inhibition means similar peptide amounts are required for mimotope and original epitope for lowering AB binding. Mimotopes are compared to the original peptide as standard. OD at 10 ug peptide used in the assay is used to calculate the competition capacity compared to original peptide.

[3] = test system: Aβ/truncated/modified forms; assay: In vivo characterisation of mimotopes: detection of Aβ/truncated/modified forms; design: species or system C57/B16 mice; key: +: All peptides listed in Table 4 mount specific immune reactions against full length and/or truncated and modified forms of Aβ or fragments thereof; settings: Table 4, MV-001 derived mimotopes
Procedure: (§4) Inhibiting as well as non-inhibiting peptides were coupled to KLH and injected into mice (wildtype C57/B16 mice; subcutaneous injection into the flank) together with an appropriate adjuvant (aluminium hydroxide). Animals were vaccinated 3-6 times in biweekly intervals and sera were taken biweekly as well. Titers to injected peptides, as well as to an irrelevant peptide were determined with every serum. Furthermore, titers against the recombinant human Aβ protein, and against original peptides were determined respectively. In general sera were analysed by reaction against peptides coupled to Bovine Serum Albumin (BSA) and recombinant full length proteins which were immobilised on ELISA plates. Titers were determined using anti mouse IgG specific antibodies. For detailed results see FIGS. 15, 16 and 17 respectively and FIGS. 23, 24 and 25 respectively.
(§5) Female C57/b16 mice, 5-6 mice per group, were subcutaneously immunized with 30 μg peptide coupled to KLH. Control groups were administered original epitope-KLH conjugates respectively. As adjuvant alum was used (always 1 mg per mouse). […] The in vitro ELISA assay to determine the antibody titer was performed with sera of single mice after each vaccination in a two week interval (see FIGS. 15 and 16 respectively). The wells of the ELISA plate were coated with mimotope-BSA conjugate and an irrelevant peptide-BSA conjugate (negative control). The positive control was performed by reaction of the parental antibody with the respective mimotope-BSA conjugate. The detection was performed with anti-mouse IgG. Additionally, recombinant proteins were immobilised on ELISA plates and sera reacted accordingly. FIGS. 15 to 17 show representative examples for assays used to characterise mimotopes in vivo.
as §5, with “FIGS. 25” for “FIGS. 15”, “and 26” for “and 16”, “respectively). Titers were calculated as OD max/2 in all figures shown.” for “respectively).”, “FIGS. 23, 24 and 25” for “FIGS. 15 to 17”

[4] = test system: monoclonal antibody MV-002; assay: In vitro binding assay (ELISA), BSA-coupled peptides, parental antibody MV-002; design: species or system C57/B16 mice; settings: Table 1 (MV-002); peptide-BSA on plate, compared to original epitope
Procedure: as §1
Legend to Table 1: the binding capacity is coded by the following binding code: 1:X describes the dilution factor of the parental AB. Ac- . . . indicates acetylated AA.

[5] = test system: monoclonal antibody MV-002; assay: In vitro inhibition assay (ELISA), MV-002 binding to original epitope; design: species or system C57/B16 mice; settings: Table 2 (MV-002); OD at 5 ug peptide compared to original peptide
Procedure: as §2
as §3, with “2:” for “2C:”, “5” for “10”

[6] = test system: Aβ/truncated/modified forms; assay: In vivo characterisation of mimotopes: detection of Aβ/truncated/modified forms; design: species or system C57/B16 mice; key: +: All peptides listed in table 4 mount specific immune reactions against full length and/or truncated and modified forms of Aβ or fragments thereof; settings: Table 4, MV-002 derived mimotopes
Procedure: as §4, §5
as §5, with “FIGS. 25” for “FIGS. 15”, “and 26” for “and 16”, “respectively). Titers were calculated as OD max/2 in all figures shown.” for “respectively).”, “FIGS. 23, 24 and 25” for “FIGS. 15 to 17”

[7] = target: monoclonal antibody MV-002; assay: ELISA on peptide-BSA; code 1 = weak binding, OD halfmax 1:<40000

Row | Molecule | Binding Capacity [1] | Inhibition Capacity [2] | Detection of Aβ/truncated/modified forms [3] | Binding Capacity [4] | further results
1 | TSVFRHC [p4383] | 3 (strong binding :>20000) | 1 (Weaker than original epitope (OD of 10 ug peptide below 3 times of original peptide)) | + |  | 
2 | ADHDFRHC [p4740] | 3 (strong binding :>20000) | 1 (Weaker than original epitope (OD of 10 ug peptide below 3 times of original peptide)) | + |  | 
3 | LMFRHNC [p4386] | 3 (strong binding :>20000) | 1 (Weaker than original epitope (OD of 10 ug peptide below 3 times of original peptide)) | + |  | 
4 | YEFRHAQC [p4748] | 3 (strong binding :>20000) |  | + |  | 
5 | THTDFRHC [p4725] | 3 (strong binding :>20000) | 1 (Weaker than original epitope (OD of 10 ug peptide below 3 times of original peptide)) | + |  | 
6 | TLHEFRHC [p4715] | 3 (strong binding :>20000) | 2 (strong inhibition (as original epitope; OD of 10 ug peptide below 2 times of original peptide)) | + |  | 
7 | SPNQFRHC [p4707] | 3 (strong binding :>20000) | 1 (Weaker than original epitope (OD of 10 ug peptide below 3 times of original peptide)) | + |  | 
8 | SHQRLWFC [p4674] |  |  |  | 3 (strong binding :>320000) | Inhibition Capacity [5]: 1 (Weaker than original epitope (OD of peptide below 4, 6 times of original peptide))
9 | SGQIWFRC [p4414] |  |  |  | 1 (weak binding :<40000) | Detection of Aβ/truncated/modified forms [6]: +
10 | SGQLKFPC [p4413] |  |  |  | 1 (weak binding :<40000) | Detection of Aβ/truncated/modified forms [6]: +
11 | SGEYVFHC [p4404] |  |  |  | 1 (weak binding :<40000) | Detection of Aβ/truncated/modified forms [6]: +
12 | SEFKHGC [p4381] | 3 (strong binding :>20000) | 1 (Weaker than original epitope (OD of 10 ug peptide below 3 times of original peptide)) | + |  | 
13 | TEFRHKAC [p4753] | 3 (strong binding :>20000) | 2 (strong inhibition (as original epitope; OD of 10 ug peptide below 2 times of original peptide)) | + |  | 
14 | HQKMIFC [p4794] |  |  |  | 2 (medium binding :40000-320000) | Inhibition Capacity [5]: 1 (Weaker than original epitope (OD of peptide below 4, 6 times of original peptide))
15 | NDAKIVFC [p4667] |  |  |  | 3 (strong binding :>320000) | Inhibition Capacity [5]: 1 (Weaker than original epitope (OD of peptide below 4, 6 times of original peptide))
16 | DEHPFRHC [p4730] | 3 (strong binding :>20000) | 1 (Weaker than original epitope (OD of 10 ug peptide below 3 times of original peptide)) | + |  | 
17 | ILFRHGC [p4390] | 3 (strong binding :>20000) | 1 (Weaker than original epitope (OD of 10 ug peptide below 3 times of original peptide)) | + |  | 
18 | GEIQFGAC [p4699] |  |  |  | 3 (strong binding :>320000) | Detection of Aβ/truncated/modified forms [6]: +; Inhibition Capacity [5]: 1 (Weaker than original epitope (OD of peptide below 4, 6 times of original peptide))

Row | Molecule | Binding Capacity [1] | Inhibition Capacity [2] | Detection of Aβ/truncated/modified forms [3] | Binding Capacity [4] | further results
19 | GEIRFGSC [p4696] |  |  |  | 3 (strong binding :>320000) | Detection of Aβ/truncated/modified forms [6]: +
20 | GEIKFDHC [p4698] |  |  |  | 3 (strong binding :>320000) | Detection of Aβ/truncated/modified forms [6]: +; Inhibition Capacity [5]: 2 (strong inhibition (as original epitope; OD of peptide below 2, 3 times of original peptide))
21 | GELWFPC [p4673] |  |  |  | 3 (strong binding :>320000) | Detection of Aβ/truncated/modified forms [6]: +; Inhibition Capacity [5]: 1 (Weaker than original epitope (OD of peptide below 4, 6 times of original peptide))
22 | ELFKHHLC [p4714] | 3 (strong binding :>20000) |  | + |  | 
23 | QSEFKHWC [p4738] | 3 (strong binding :>20000) | 1 (Weaker than original epitope (OD of 10 ug peptide below 3 times of original peptide)) | + |  | 
24 | SGEIHFNC [p4415] |  |  |  | 1 (weak binding :<40000) | Detection of Aβ/truncated/modified forms [6]: +
25 | SQFRHYC [p4385] | 2 (medium binding :4000-20000) | 1 (Weaker than original epitope (OD of 10 ug peptide below 3 times of original peptide)) | + |  | 
26 | THQRLWFC [p4693] |  |  |  | 3 (strong binding :>320000) | Detection of Aβ/truncated/modified forms [6]: +
27 | GEILFGMC [p4689] |  |  |  | 3 (strong binding :>320000) | Inhibition Capacity [5]: 1 (Weaker than original epitope (OD of peptide below 4, 6 times of original peptide))
28 | SHTRLYFC [p4403] |  |  |  |  | OD halfmax dilution factor of the parental antibody (1:X) (dilutionfactor(1:x)) [7]: < 40000
29 | SGEYVFHC [p4404] |  |  |  |  | OD halfmax dilution factor of the parental antibody (1:X) (dilutionfactor(1:x)) [7]: < 40000
30 | SGQLKFPC [p4413] |  |  |  |  | OD halfmax dilution factor of the parental antibody (1:X) (dilutionfactor(1:x)) [7]: < 40000
31 | SGQIWFRC [p4414] |  |  |  |  | OD halfmax dilution factor of the parental antibody (1:X) (dilutionfactor(1:x)) [7]: < 40000
32 | SGEIHFNC [p4415] |  |  |  |  | OD halfmax dilution factor of the parental antibody (1:X) (dilutionfactor(1:x)) [7]: < 40000
33 | GQIWFISC [p4666] |  |  |  |  | OD halfmax dilution factor of the parental antibody (1:X) (dilutionfactor(1:x)) [7]: < 40000
34 | AIPLFVMC [p4682] |  |  |  |  | OD halfmax dilution factor of the parental antibody (1:X) (dilutionfactor(1:x)) [7]: < 40000
35 | KLPLFVMC [p4691] |  |  |  |  | OD halfmax dilution factor of the parental antibody (1:X) (dilutionfactor(1:x)) [7]: < 40000
36 | GTIFFRDC [p4692] |  |  |  |  | OD halfmax dilution factor of the parental antibody (1:X) (dilutionfactor(1:x)) [7]: < 40000
